Results taken from US20090118253A1, “COMPOSITIONS AND METHODS FOR TREATING DYSFUNCTIONAL UTERINE BLEEDING” (REPROS THERAPEUTICS INC., priority 2007, published 2009).

Legend:
[1] = system: pre-menopausal adult women diagnosed with endometriosis; assay: Six month endometriosis study: side effects and bleeding events; format: in vivo, human
Procedure: Although this was a small study and no definitive conclusions can be made from the safety data, there was no single signal of safety observed.
A similar event was not seen at the 50 mg dose during the treatment phase. Greater than normal bleeding occurred in two patients in the 50 mg CDB-4124 group after treatment was stopped and a D&C was performed in one and the other successfully managed conservatively.

[2] = Urinary estrogen levels (follicular phase) in cynomolgus monkeys; format: in vivo, Cynomolgus monkeys (Macaca fascicularis); set-up: Urinary estrogen, follicular phase, Mean: unit not given here; conditions: for Urinary estrogen, follicular phase, Mean: CDB-4124 or RU-486 oral 1.0 mg/kg/day, Lupron IM once per month
Procedure: Cynomolgus monkeys (Macaca fascicularis) (n=14) were treated orally for 36 weeks with CDB-4124 or RU-486 at 1.0 mg/kg/day or with placebo (control). Another group (n=14) received Lupron® IM once per month. Urinary progesterone levels were measured for each animal for one month during the middle of the study (weeks 14-17) and for the last month of the study (weeks 33-36). The results are presented below:
Urinary estrogen levels were measured for each animal of Example 6 for one month during the middle of the study (weeks 14-17) and for the last month of the study (weeks 33-36). The follicular phase results are based on 35 baseline ovulating cycles.

[3] = system: Cynomolgus monkey endometrial epithelium, uterus stroma and breast; assay: TUNEL apoptosis in cynomolgus monkey tissue; format: in vivo, Cynomolgus monkeys (Macaca fascicularis); conditions: week 36, percent apoptotic cells
Procedure: Apoptosis was assessed in tissue from the same animals on slides by the terminal deoxynucleotidyl transferase mediated dUTP-biotin nick end labeling (TUNEL) technique.

[4] = system: Cynomolgus monkey endometrial epithelia, uterus stroma and breast; assay: BrdU incorporation, tissue proliferation in cynomolgus monkeys; format: in vivo, Cynomolgus monkeys (Macaca fascicularis); conditions: week 36, % cells positive for incorporation of BrdU, three animals per group
Procedure: At week 36, three animals from each group of Example 6 were injected within 24 hours of sacrifice with the thymidine analog bromodeoxyuridine (BrdU), a marker of proliferating cells and their progeny, to assess tissue proliferation. Full thickness uterine sections were stained and examined microscopically for evidence of proliferation in terms of the % cells positive for incorporation of BrdU: […]

[5] = system: pre-menopausal adult women diagnosed with endometriosis; assay: Six month endometriosis study: pain diaries and pain intensity surveys; format: in vivo, human; conditions: for pain free days, percent: 180 day treatment period
Procedure: Pain reduction also occurred more rapidly than with the active control, Lucrin®. The response of pain to treatment in this study was analyzed in two ways. Patients in the study maintained daily pain diaries to record the severity and frequency of pain. In addition, at each office visit, patients filled out endometriosis symptom surveys that included a questionnaire that evaluated intensity of pain on a bad day on a scale of 0-10 with 10 being the greatest intensity. […] This decrease in duration of pain was statistically better (p=0.0012) than the 117.8 (74%; standard deviation 51.4 days) pain free days achieved with Lucrin n. […] Patients on CDB-4124 12.5 mg and 25 mg doses had 115.9 (66%; standard deviation 69.2 days) and 133.6 (75%; standard deviation 27.4 days) pain free days, respectively. […] The 25 mg and 12.5 mg doses of CDB-4124 were not statistically different from Lucrin®. […] The intensity of pain was asked by the question: “On a scale of 1-10, with 0 being no pain and 10 being extreme pain, how intense was your pain on a bad day?” The mean scores for intensity of pain at baseline were 6.3 for the CDB-4124 groups and 6.1 for the Lucrin® group. […] At month three all four active treatment groups had satistically significant reduction in pain compared with baseline, with the following scores: 3.7 (p=0.03) for 12.5 mg CDB-4124, 3.2 (p=0.03) for 25 mg CDB-4124, 1.6 (p=0.015) for 50 mg CDB-4124 and 1.5 (p=0.016) for Lucrin®. These dose related reductions continued until month six when the values for pain intensity were 2.0 (p=0.008), 2.8 (p=0.023), 0.6 (p=0.004) and 0.7 (p=0.016), respectively. Two months after stopping treatment pain returned and was of similar intensity in all four treatment groups.

Structure (SMILES): COCC(=O)[C@@]1(OC(C)=O)CC[C@H]2[C@@H]3CCC4=CC(=O)CCC4=C3[C@@H](c3ccc(N(C)C)cc3)C[C@@]21C [CDB-4124, 21-methoxy-17α-acetoxy-11β-(4 N,N-dimethylaminophenyl)-19-norpregna-4,9-diene-3,20-dione]
- cases of non-menstrual spotting and bleeding with excessive endometrial thickening needing D&C ([1]; 12.5 mg and 25 mg CDB-4124 groups, treatment phase): two cases
- patients with greater than normal bleeding after treatment was stopped ([1]; 50 mg CDB-4124 group): two patients
- non-menstrual spotting and bleeding with excessive endometrial thickening needing D&C ([1]; 50 mg dose, treatment phase): not seen
- side effects ([1]; women, six month study): generally mild
- Follicular phase estrogen Lower? ([2]; Week 18): No
- Urinary estrogen, follicular phase, Mean ([2]; Week 18): 63.8
- Follicular phase estrogen Lower? ([2]; Week 36): No
- Urinary estrogen, follicular phase, Mean ([2]; Week 36): 67.3
- Breast Apo % [3]: 2.6 ± 0.9%
- Uterus epithelium Apo % [3]: 0.5 ± 0.2%
- Uterus stroma Apo % [3]: 0.5 ± 0.1%
- Breast Brdu-% [4]: 1.9 ± 0.7%
- Uterus epithelium Brdu-% [4]: 2.1 ± 2.2%
- Uterus stroma Brdu-% [4]: 1.1 ± 0.25%
- mean score for intensity of pain on a bad day (scale 0-10) ([5]; baseline): 6.3
- score for intensity of pain on a bad day (scale 0-10) ([5]; month six, 12.5 mg/day): 2.0
- score for intensity of pain on a bad day (scale 0-10) ([5]; month six, 25 mg/day): 2.8
- score for intensity of pain on a bad day (scale 0-10) ([5]; month six, 50 mg/day): 0.6
- score for intensity of pain on a bad day (scale 0-10) ([5]; month three, 12.5 mg/day): 3.7
- score for intensity of pain on a bad day (scale 0-10) ([5]; month three, 25 mg/day): 3.2
- score for intensity of pain on a bad day (scale 0-10) ([5]; month three, 50 mg/day): 1.6
- pain free days over the 180 day treatment period ([5]; women, 12.5 mg/day oral): 115.9 days
- pain free days, percent ([5]; women, 12.5 mg/day oral): 66%
- pain free days over the 180 day treatment period ([5]; women, 25 mg/day oral): 133.6 days
- pain free days, percent ([5]; women, 25 mg/day oral): 75%
- days of pain over the first three months ([5]; women, 50 mg/day oral): less than 1 day
- pain free days over the 180 day treatment period ([5]; women, 50 mg/day oral): 170 days
- pain free days, percent ([5]; women, 50 mg/day oral): 96%
